Assay [1] addresses T1, isolated recombinant JAK2 kinase domain (Homo sapiens, UniProt O60674).
T1 construct: The activity of the isolated recombinant JAK1 and JAK2 kinase domain was measured
The assay can be described thus: JAK2 enzyme assay (Caliper LabChip, Ki). The settings on record: 25 μM ATP. It counts as biochemical. The method in brief: (§1)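 Phosphorylation of a fluorescent JAK3-derived dodecapeptide by recombinant human JAK1 or JAK2 catalytic domain is monitored through electrophoretic product/substrate separation. Incubation lasts 30 minutes at 22° C; EDTA quench. Morrison-model Ki values account for ATP competition.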

Assay [2] deals with JAK1-dependent STAT6 phosphorylation downstream of IL-13 stimulation in BEAS-2B human bronchial epithelial cells. Description: JAK1 pathway assay in BEAS-2B cells (IL-13 stimulated STAT6 phosphorylation, MSD). The settings on record: read-out: P-STAT6 BEAS2B + IL13 IC50. It counts as cell-based. The method in brief:
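BEAS-2B human bronchial epithelial cells, plated the day before in complete growth medium, were preincubated with compound for 1 hr at 37° C (0.2% DMSO final), then stimulated with IL-13 at its EC90 for 15 min. STAT6 phosphorylation in lysates was read by MSD; EC50 was taken as 50% inhibition versus DMSO control.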

Assay [3] concerns the target T2, isolated recombinant JAK1 kinase domain (Homo sapiens, UniProt P23458).
T2 construct: The activity of the isolated recombinant JAK1 and JAK2 kinase domain was measured
The assay can be described thus: JAK1 enzyme assay (Caliper LabChip, Ki). In kind it is biochemical. To be noted: recombinant JAK1 kinase domain, 25 μM ATP. The method in brief:
as §1

Each structure is given as a SMILES string.

What is called Ki is the equilibrium dissociation constant of an inhibitor or competing ligand from its target. One may read the IC50 as the concentration needed to halve the response being measured.

T2 sequence (P23458 875-1153 limits assumed): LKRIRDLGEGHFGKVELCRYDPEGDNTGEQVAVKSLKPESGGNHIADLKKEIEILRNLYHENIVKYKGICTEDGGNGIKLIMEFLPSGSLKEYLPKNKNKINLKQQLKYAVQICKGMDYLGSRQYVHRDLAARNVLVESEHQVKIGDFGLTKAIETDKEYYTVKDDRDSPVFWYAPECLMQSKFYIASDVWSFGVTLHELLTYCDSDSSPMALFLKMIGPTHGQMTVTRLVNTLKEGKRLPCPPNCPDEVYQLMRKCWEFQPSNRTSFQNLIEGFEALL
T1 sequence (O60674 849-1124 limits assumed): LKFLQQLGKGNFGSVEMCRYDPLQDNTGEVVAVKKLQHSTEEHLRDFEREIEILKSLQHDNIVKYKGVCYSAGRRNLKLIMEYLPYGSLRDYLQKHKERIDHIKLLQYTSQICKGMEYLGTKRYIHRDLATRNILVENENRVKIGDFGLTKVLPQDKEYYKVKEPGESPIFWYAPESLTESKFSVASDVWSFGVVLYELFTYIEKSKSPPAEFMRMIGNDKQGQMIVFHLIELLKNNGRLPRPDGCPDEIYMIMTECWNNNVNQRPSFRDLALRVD

On to `COC(=O)N1CCN(CC2CCN(C(=O)Cn3cc(NC(=O)c4cnn5cccnc45)c(-c4cc(SC)ccc4OC(F)F)n3)CC2)CC1` [Example 83, methyl 4-[[1-[2-[3-[2-(difluoromethoxy)-5-methylsulfanyl-phenyl]-4-(pyrazolo[1,5-a]pyrimidine-3-carbonylamino)pyrazol-1-yl]acetyl]-4-piperidyl]methyl]piperazine-1-carboxylate], for which the Ki in assay [1] was 0.44 nM; in assay [3], 0.3 nM. In assay [2], the IC50 stood at 10 nM.

In the case of `CSc1ccc(OC(F)F)c(-c2nn(CC(=O)N3CCC(N4CCO[C@H](CO)C4)CC3)cc2NC(=O)c2cnn3cccnc23)c1` [Example 84, N-[3-[2-(difluoromethoxy)-5-methylsulfanyl-phenyl]-1-[2-[4-[(2S)-2-(hydroxymethyl)morpholin-4-yl]-1-piperidyl]-2-oxo-ethyl]pyrazol-4-yl]pyrazolo[1,5-a]pyrimidine-3-carboxamide], the Ki in assay [1] was found to be 0.53 nM; in assay [3] it was 0.37 nM. In addition, the IC50 in assay [2] was 44 nM.

As to `CSc1ccc(OC(F)F)c(-c2nn(CC(=O)N3CCC(N4CCOCC4CO)CC3)cc2NC(=O)c2cnn3cccnc23)c1` (stereo not drawn) [Example 85, N-[3-[2-(difluoromethoxy)-5-methylsulfanyl-phenyl]-1-[2-[4-[3-(hydroxymethyl)morpholin-4-yl]-1-piperidyl]-2-oxo-ethyl]pyrazol-4-yl]pyrazolo[1,5-a]pyrimidine-3-carboxamide], the Ki in assay [1] turned out to be 0.38 nM; in assay [3], 0.33 nM. The IC50 in assay [2] amounted to 110 nM.

Consider `CSc1ccc(OC(F)F)c(-c2nn(CC(=O)N3CCC(N4CCO[C@@H](CO)C4)CC3)cc2NC(=O)c2cnn3cccnc23)c1` [Example 86, N-[3-[2-(difluoromethoxy)-5-methylsulfanyl-phenyl]-1-[2-[4-[(2R)-2-(hydroxymethyl)morpholin-4-yl]-1-piperidyl]-2-oxo-ethyl]pyrazol-4-yl]pyrazolo[1,5-a]pyrimidine-3-carboxamide], for which the Ki in assay [1] is 0.42 nM; in assay [3] it was 0.31 nM. Moreover, the IC50 in assay [2] stood at 120 nM.

`CSc1ccc(OC(F)F)c(-c2nn(CC(=O)N3CCC(CN4CCN(CC(=O)N(C)C)C[C@H]4C)CC3)cc2NC(=O)c2cnn3cccnc23)c1` [Example 87, N-[3-[2-(difluoromethoxy)-5-methylsulfanyl-phenyl]-1-[2-[4-[[(2R)-4-[2-(dimethylamino)-2-oxo-ethyl]-2-methyl-piperazin-1-yl]methyl]-1-piperidyl]-2-oxo-ethyl]pyrazol-4-yl]pyrazolo[1,5-a]pyrimidine-3-carboxamide]: the Ki came out at 0.61 nM in assay [1] and 0.39 nM in assay [3]. Besides, the IC50 in assay [2] was 35 nM.

Turning to `CSc1ccc(OC(F)F)c(-c2nn(CC(=O)N3CCC(N4CCN(CC(=O)N5CCOCC5)CC4)CC3)cc2NC(=O)c2cnn3cccnc23)c1` [Example 88, N-[3-[2-(difluoromethoxy)-5-methylsulfanyl-phenyl]-1-[2-[4-[4-(2-morpholino-2-oxo-ethyl)piperazin-1-yl]-1-piperidyl]-2-oxo-ethyl]pyrazol-4-yl]pyrazolo[1,5-a]pyrimidine-3-carboxamide], the Ki was found to be 0.49 nM in assay [1] and 0.32 nM in assay [3]. Further, the IC50 in assay [2] is 470 nM.

As to `CSc1ccc(OC(F)F)c(-c2nn(CC(=O)N3CCN(C4CCN(CC(=O)N(C)C)CC4)CC3)cc2NC(=O)c2cnn3cccnc23)c1` [Example 89, N-[3-[2-(difluoromethoxy)-5-methylsulfanyl-phenyl]-1-[2-[4-[1-[2-(dimethylamino)-2-oxo-ethyl]-4-piperidyl]piperazin-1-yl]-2-oxo-ethyl]pyrazol-4-yl]pyrazolo[1,5-a]pyrimidine-3-carboxamide], the Ki in assay [1] worked out at 0.78 nM; in assay [3] it was 0.51 nM. Also, the IC50 in assay [2] was 200 nM.

As to `CSc1ccc(OC(F)F)c(-c2nn(Cc3cn(C4CCN(C5COC5)CC4)nn3)cc2NC(=O)c2cnn3cccnc23)c1` [Example 90, N-[3-[2-(difluoromethoxy)-5-methylsulfanyl-phenyl]-1-[[1-[1-(oxetan-3-yl)-4-piperidyl]triazol-4-yl]methyl]pyrazol-4-yl]pyrazolo[1,5-a]pyrimidine-3-carboxamide], the Ki in assay [1] came to 0.14 nM; in assay [3] it was 0.32 nM. The IC50 in assay [2] was 22 nM.

In the case of `CSc1ccc(OC(F)F)c(-c2nn(C)cc2NC(=O)c2cnn3cccnc23)c1` [Example 91, N-[3-[2-(difluoromethoxy)-5-methylsulfanyl-phenyl]-1-methyl-pyrazol-4-yl]pyrazolo[1,5-a]pyrimidine-3-carboxamide], the inhibition constant (Ki) in assay [1] was determined as 0.071 nM; in assay [3], 0.13 nM. In addition, in assay [2], the concentration for half-maximal inhibition (IC50) came to 3.9 nM.

In the case of `CSc1ccc(OC(F)F)c(-c2nn(CC(=O)N3CCC(N(CCN4CCOCC4)C4COC4)CC3)cc2NC(=O)c2cnn3cccnc23)c1` [Example 92, N-[3-[2-(difluoromethoxy)-5-methylsulfanyl-phenyl]-1-[2-[4-[2-morpholinoethyl(oxetan-3-yl)amino]-1-piperidyl]-2-oxo-ethyl]pyrazol-4-yl]pyrazolo[1,5-a]pyrimidine-3-carboxamide], the Ki was found to be 0.77 nM in assay [1] and 0.61 nM in assay [3]. The IC50 in assay [2] worked out at 1000 nM.

For `CSc1ccc(OC(F)F)c(-c2nn(CC(=O)N3CCN(CC4CCN(CC(=O)N5CCOCC5)CC4)CC3)cc2NC(=O)c2cnn3cccnc23)c1` [Example 93, N-[3-[2-(difluoromethoxy)-5-methylsulfanyl-phenyl]-1-[2-[4-[[1-(2-morpholino-2-oxo-ethyl)-4-piperidyl]methyl]piperazin-1-yl]-2-oxo-ethyl]pyrazol-4-yl]pyrazolo[1,5-a]pyrimidine-3-carboxamide], the Ki in assay [1] was found to be 0.71 nM; in assay [3], 0.44 nM. Moreover, in assay [2], the IC50 was 26 nM.

For the molecule `CSc1ccc(OC(F)F)c(-c2nn(CC(=O)N3CCC(CN4CCN(CC(=O)N(C)C)C[C@@H]4C)CC3)cc2NC(=O)c2cnn3cccnc23)c1` [Example 94, N-[3-[2-(difluoromethoxy)-5-methylsulfanyl-phenyl]-1-[2-[4-[[(2S)-4-[2-(dimethylamino)-2-oxo-ethyl]-2-methyl-piperazin-1-yl]methyl]-1-piperidyl]-2-oxo-ethyl]pyrazol-4-yl]pyrazolo[1,5-a]pyrimidine-3-carboxamide], the Ki came to 0.63 nM in assay [1] and 0.46 nM in assay [3]. In addition, in assay [2], the IC50 was 62 nM.

Take `CSc1ccc(OC(F)F)c(-c2nn(CC(=O)N3CCC(CN4CCNCC4)CC3)cc2NC(=O)c2cnn3cccnc23)c1` [Example 95, N-[3-[2-(difluoromethoxy)-5-methylsulfanyl-phenyl]-1-[2-oxo-2-[4-(piperazin-1-ylmethyl)-1-piperidyl]ethyl]pyrazol-4-yl]pyrazolo[1,5-a]pyrimidine-3-carboxamide]: the Ki in assay [1] stood at 0.68 nM; in assay [3], 0.37 nM. For the same molecule, the IC50 in assay [2] came to 150 nM.

As for `CSc1ccc(OC(F)F)c(-c2nn(Cc3cn(C4CCN(C5CCOC5)CC4)nn3)cc2NC(=O)c2cnn3cccnc23)c1` (stereo not drawn) [Example 96, N-[3-[2-(difluoromethoxy)-5-methylsulfanyl-phenyl]-1-[[1-(1-tetrahydrofuran-3-yl-4-piperidyl)triazol-4-yl]methyl]pyrazol-4-yl]pyrazolo[1,5-a]pyrimidine-3-carboxamide], the inhibitory constant (Ki) was found to be 0.2 nM in assay [1] and 0.3 nM in assay [3]. Besides, the IC50 in assay [2] is 14 nM.

Consider `CSc1ccc(OC(F)F)c(-c2nn(CC(=O)N3CCC(CN4CCN(CC(=O)N(C)C)[C@H](C)C4)CC3)cc2NC(=O)c2cnn3cccnc23)c1` [Example 97, N-[3-[2-(difluoromethoxy)-5-methylsulfanyl-phenyl]-1-[2-[4-[[(3R)-4-[2-(dimethylamino)-2-oxo-ethyl]-3-methyl-piperazin-1-yl]methyl]-1-piperidyl]-2-oxo-ethyl]pyrazol-4-yl]pyrazolo[1,5-a]pyrimidine-3-carboxamide], for which the Ki in assay [1] is 0.62 nM; in assay [3], 0.38 nM. Also, the IC50 in assay [2] stood at 30 nM.

As for `CSc1ccc(OC(F)F)c(-c2nn(CC(=O)N3CCC(CN4C[C@@H](C)N(CC(=O)N(C)C)C[C@@H]4C)CC3)cc2NC(=O)c2cnn3cccnc23)c1` [Example 98, N-[3-[2-(difluoromethoxy)-5-methylsulfanyl-phenyl]-1-[2-[4-[[(2S,5R)-4-[2-(dimethylamino)-2-oxo-ethyl]-2,5-dimethyl-piperazin-1-yl]methyl]-1-piperidyl]-2-oxo-ethyl]pyrazol-4-yl]pyrazolo[1,5-a]pyrimidine-3-carboxamide], the inhibition constant Ki in assay [1] turned out to be 1.2 nM; in assay [3], 0.64 nM. For the same molecule, in assay [2], the IC50 was found to be 37 nM.

As for `CSc1ccc(OC(F)F)c(-c2nn(CC(=O)N3CCN([C@H]4CC[C@@H](C#N)CC4)CC3)cc2NC(=O)c2cnn3cccnc23)c1` [Example 99, N-[1-[2-[4-(4-cyanocyclohexyl)piperazin-1-yl]-2-oxo-ethyl]-3-[2-(difluoromethoxy)-5-methylsulfanyl-phenyl]pyrazol-4-yl]pyrazolo[1,5-a]pyrimidine-3-carboxamide], the inhibitory constant (Ki) in assay [1] was found to be 0.56 nM; in assay [3], 0.38 nM. Further, in assay [2], the IC50 turned out to be 9.5 nM.

On to `CSc1ccc(OC(F)F)c(-c2nn(CC(=O)N3CCN([C@H]4CC[C@H](C#N)CC4)CC3)cc2NC(=O)c2cnn3cccnc23)c1` [Example 100, N-[1-[2-[4-(4-cyanocyclohexyl)piperazin-1-yl]-2-oxo-ethyl]-3-[2-(difluoromethoxy)-5-methylsulfanyl-phenyl]pyrazol-4-yl]pyrazolo[1,5-a]pyrimidine-3-carboxamide], for which the results for the inhibition constant (Ki) in assay [1] and in assay [3] were 0.6 nM and 0.41 nM, respectively. For the same molecule, the IC50 in assay [2] was determined as 9.4 nM.

The values above are taken from patent publication US20180265515A1 (Genentech, Inc., priority 2015, published 2018).
